What was measured:
human mast cells [1] = test: Inhibition of histamine release from human mast cells; type: cell-based; details: IgE challenged human cord derived mast cells, 5 min incubation, FIG. 1
Protocol: Protocol: Human derived cord mast cells were cultured using the following method. Commercially available CD34^+ stem cells were cultured for […] in StemSpan (StemCell Technologies, Grenoble, France) serum-free medium supplemented with 100 ng/ml human SCF, 50 ng/ml IL-6 and 1 ng/ml IL-3, and 100 μg/ml penicillin/streptomycin (Peprotech, London, UK). After eight weeks, cells were cultured in StemSpan with 10% FCS. The cells were passaged into new medium every week. Cells were used for experiments between 11 and 18 weeks following confirmation by microscopic examination, c-kit and FcRε1 staining (by FACS), of mast cell morphology. For assessment of drug effects, Nalidixic Acid was incubated for 5 min with aliquots of 2×10^5 CDMCs (cord derived mast cells) cultured in 10% FCS medium. A commercially-available enzyme immunoassay was used to detect and quantify histamine released in the supernatant (SPI bio, Strasbourg, France). The assay was conducted following the manufacturer protocols. A standard curve ranging from 0.39-50 nM histamine was prepared using the reagent provided and the optical density was then read within 60 min in a microplate reader (at 405 nm). In some cases, the total cell content of histamine was established by freeze thawing of cells prior to challenge

human mast cells [2] = test: Inhibition of Prostaglandin D2 release from human mast cells; type: cell-based; details: IgE challenged human cord derived mast cells, FIG. 2
Protocol: Human cord derived mast cells were cultured using the methodology described in Example 1. A commercially-available enzyme immunoassay (Cayman Chemical, Michigan, USA) was used to detect and quantify PGD2 released in the supernatant. The assay was conducted following the manufacturer protocols. A standard curve ranging from 78-10,000 pg/ml PGD2 was prepared using the reagent provided and the optical density was then read within 60 min in a microplate reader (at 405 nm).

human mast cells [3] = test: Release of Annexin-A1 from human mast cells (ELISA); type: cell-based; details: increasing concentrations of Nalidixic acid, conditioned medium, FIG. 3
Protocol: Human cord derived mast cells were cultured using the methodology described in Example 1. Anx-A1 protein levels in conditioned medium were determined by ELISA. Briefly, 96-well flat-bottomed ELISA plates (Greiner, Gloucestershire, UK) were coated with 1 μg anti-Anx-A1 mAb 1B in bicarbonate buffer (pH 9.6) and incubated overnight at 4° C. After washing in the bicarbonate buffer, potentially uncoated sites were blocked with 100 μL of PBS containing 1% BSA for 1h at room temperature. Sample aliquots (100 μL) or Anx-A1 standard solutions (prepared in 0.1% Tween-20 in PBS; concentration ranging between 10 and 0.001 μg/mL) were added for 1h at 37° C. After extensive washing in PBS/Tween-20, 100 μL of a polyclonal rabbit anti-human Anx-A1 serum (Zymed, Invitrogen, Paisley, UK; diluted 1:1000 in PBS/Tween-20) was added (1h at 37° C.) prior to incubation with donkey anti-rabbit 1 gG conjugated to alkaline phosphatase (1:1000; Sigma). The colour was developed by addition of 100 μL p-nitrophenyl phosphate (1 mg/mL in bicarbonate buffer, pH 9.6). Absorbance was read at 405 nm (with a 620-nm reference filter) in a microplate reader (Titertek™, Vienna, Austria). Anx-A1 levels in the study samples were read against the standard curve and expressed as ng/ml.

[4] = system: ovalbumin induced murine model of asthma; test: Ovalbumin induced murine model of asthma, BALF eosinophils; type: in vivo, mouse; details: female BALB/c mice, 0.3 mg/kg intranasal, OVA challenge
Protocol: The effects of locally administered Nalidixic acid were studied in a mouse model of asthma. Female BALB/c mice, 8 animals per group, were sensitised to ovalbumin (OVA, 10 mg) by intra-peritoneal injection on days 1 and 14 of the study. On days 20, 21, 22 and 23 animals either received a challenge dose of ovalbumin (50 μg) to the lung given by intranasal administration or 50 μl of phosphate buffered saline (PBS, non-challenged group). Animals challenged with OVA also received either PBS vehicle or Nalidixic acid (0.3 mg/kg of body weight) given by intranasal administration for inhalation into the lung. This was administered 30 minutes prior to and 6 hours post each ovalbumin challenge on days 21 to 23 and in addition on day 24, the day between the last challenge and the terminal day of the experiment. Forty-eight hours after the final OVA challenge, mice were anaesthetised with a combination of ketamine hydrochloride (Narketan, 2 mg/mouse) and xylazine hydrochloride (Rompun, 0.07 mg/mice) and sacrificed by carotid exsanguination.
Bronchoalveolar lavage fluid (BAL) was obtained as follows. The trachea was cannulated. Phosphate Buffered Saline (PBS) was used as the lavage fluid, 3 volumes (0.4 ml; 0.3 ml; 0.3 ml; total 1 mL) were gently instilled and withdrawn on 3 consecutive occasions using a 1 ml BD syringe and then placed in an Eppendorf tube (˜1 ml). […]

phosphatase PP2A = phosphatase PP2A (Homo sapiens, UniProt P67775); test: Inhibition of the phosphatase PP2A; type: biochemical; details: statement in summary, no method or data
phosphatase PP2A, sequence (P67775 whole entry): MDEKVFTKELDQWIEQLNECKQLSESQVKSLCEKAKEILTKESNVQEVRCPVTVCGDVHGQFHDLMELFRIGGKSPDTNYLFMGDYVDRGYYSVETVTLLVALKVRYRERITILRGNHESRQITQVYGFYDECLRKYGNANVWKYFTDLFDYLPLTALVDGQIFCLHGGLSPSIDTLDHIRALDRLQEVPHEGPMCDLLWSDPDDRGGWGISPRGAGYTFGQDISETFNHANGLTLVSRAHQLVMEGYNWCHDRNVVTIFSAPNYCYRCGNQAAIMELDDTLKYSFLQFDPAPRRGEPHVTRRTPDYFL

In the case of CCn1cc(C(=O)O)c(=O)c2ccc(C)nc21 [Nalidixic acid], the “inhibition of histamine release” value (human mast cells [1]) is reported as “dose related inhibition”, the “inhibition of PGD2 release” value (human mast cells [2]) is reported as “dose related inhibition” and the “Annexin-A1 released from human mast cells” value (human mast cells [3]) is reported as “increase”. The “decrease in total BALF eosinophil counts compared with challenged vehicle treated animals” value ([4]; p<0.05, FIG. 4) was 47%, the “reduction of percentage of eosinophils of the total BALF cellular count versus vehicle treated group” value ([4]; p<0.05, FIG. 5) was 44% and the “inhibition of the phosphatase PP2A” value (phosphatase PP2A) was “potent inhibitors”.
